In ChEMBL document CHEMBL5393447, “Selective foxo inhibitors for treatment of diabetes and other disorders related to impaired pancreatic function” (2022):

Test system: not listed separately
Assay: Metabolic stability in human hepatocytes assessed as compound remaining at 0.3 uM measured upto 90 mins by LC-MS/MS analysis
Format: ADME, cell-based, Hepatocyte
Settings: read-out: Stability
O=C(Nc1cc(-c2nc3ccccc3[nH]2)n[nH]1)c1ccc(N2CCNCC2)cc1 showed a remaining at 1.5 h, 0.3 µM of 110%.

Target: Forkhead box protein O1 (Homo sapiens) (UniProt Q12778)
Sequence (Q12778 whole entry): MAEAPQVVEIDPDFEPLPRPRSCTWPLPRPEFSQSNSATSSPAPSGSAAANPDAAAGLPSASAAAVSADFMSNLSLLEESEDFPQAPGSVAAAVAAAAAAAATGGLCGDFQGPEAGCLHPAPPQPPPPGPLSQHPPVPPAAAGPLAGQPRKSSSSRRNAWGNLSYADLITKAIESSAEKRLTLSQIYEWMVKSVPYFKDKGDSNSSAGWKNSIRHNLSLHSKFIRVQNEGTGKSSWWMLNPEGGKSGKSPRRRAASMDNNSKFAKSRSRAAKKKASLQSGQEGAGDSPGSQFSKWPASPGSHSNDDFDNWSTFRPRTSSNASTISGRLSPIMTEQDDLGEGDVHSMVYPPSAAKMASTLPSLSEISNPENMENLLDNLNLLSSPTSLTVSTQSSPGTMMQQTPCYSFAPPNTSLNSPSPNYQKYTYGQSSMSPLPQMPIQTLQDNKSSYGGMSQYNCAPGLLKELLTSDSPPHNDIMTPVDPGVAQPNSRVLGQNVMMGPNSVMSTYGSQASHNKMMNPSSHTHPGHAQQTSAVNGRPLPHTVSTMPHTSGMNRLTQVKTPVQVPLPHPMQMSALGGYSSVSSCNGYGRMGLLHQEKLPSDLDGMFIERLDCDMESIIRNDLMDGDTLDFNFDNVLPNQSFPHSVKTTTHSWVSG
Settings: HEK293, dose 1-50000 nM
Description: Inhibition of human FOXO1 expressed in HEK293 cells at 1 nM to 50 uM by Dual-Glo luciferase assay relative to control
Work on Nc1cc(-c2nc3ccccc3[nH]2)n[nH]1 yielded an inhibition of less than 40%.
With CN1CCC(c2ccc(C(=O)Nc3cc(-c4nc5ccccc5[nH]4)n[nH]3)cc2)CC1 the inhibition was greater than 40%.
In the case of CC(=O)N1CCN(c2ccc(C(=O)Nc3cc(-c4nc5ccccc5[nH]4)n[nH]3)cc2)CC1, the inhibition was greater than 40%.
In the case of CC(=O)Nc1cc(-c2nc3ccccc3[nH]2)n[nH]1, the inhibition was less than 40%.
COc1ccc(C(=O)Nc2cc(-c3nc4cc(C(F)(F)F)ccc4[nH]3)[nH]n2)cc1Cl showed an inhibition greater than 40%.
In the case of CN1CCN(c2ccc(C(=O)Nc3cc(-c4nc5ccccc5[nH]4)n[nH]3)cc2)CC1, the inhibition was greater than 40%.
In the case of COc1ccc(C(=O)Nc2cc(-c3nc4c(C(F)(F)F)cccc4[nH]3)[nH]n2)cc1Cl, the inhibition was greater than 40%.
COc1ccc(C(=O)Nc2cc(-c3nc4cc(OC(F)(F)F)ccc4[nH]3)[nH]n2)cc1Cl gave an inhibition greater than 40%.
